Results on five compounds are retold here after patent publication US4880807A, “Nicotinoylpiperazines useful for treatment of convulsions” (Institut De Recherches Chimiques et Biologiques Appliquees …, priority 1987, dated 1989).

Data set [1] relates to male mice. In words: oral toxicity in mice (LD50, mortality over 14 days). Particulars: male mice. On the procedure: (§1) The toxicity of the products to be studied was investigated by the oral administration, using an esophageal tube, of each of the said products to male mice with a body weight of 18 to 22 g, divided into groups each containing 10 to 20 animals. The mortality was recorded over a 14-day period.

Data set [2] deals with convulsions induced by pentetrazole. In words: animal or person. As to conditions: for Therapeutic index PTZ (LD50/ED50): LD50 per os/ED50 per os, PTZ convulsions. An excerpt:
(§2) The anticonvulsant properties were investigated on male mice, thirty minutes after the oral administration of the substances to be studied, by the induction of convulsive seizures.

Data set [3] relates to convulsions induced by supra maximal electroshock (MCE). The experiment in a line: animal or person. As to conditions: for Therapeutic index MCE (LD50/ED50): LD50 per os/ED50 per os, MCE convulsions. On the procedure: as §2
These seizures are caused either by the intraperitoneal injection of pentetrazole (125 mg/kg) or by electrical stimulation of the cornea (supra maximal electroshock, abbreviated to MCE).

In data set [4] the test system is male mice. In words: in vivo. The data set is classed as in vivo. Particulars: for Protection index MCE (TD50/ED50) / Protection index PTZ (TD50/ED50): TD50 per os/ED50 per os; for Protection index MCE (TD50/ED50): MCE convulsions; for Protection index PTZ (TD50/ED50): PTZ convulsions; for TD50 (50% neurotoxic dose): per os, male mice, Rota-rod 30 min after administration, dose causing 50% of animals to fall, 30 min. From the text: (§3) The animals (divided into groups each containing ten male mice per dose and per product) are installed on the rod and their fall is observed over the next two minutes.
In general terms: The rotarod test checks motor coordination on a turning rod.

The nature of data set [5]: oral toxicity in mice (LD50, mortality over 14 days). As to conditions: mouse, in vivo, po. Here is the method: as §1
A further data set in a line: in vivo. Type of data set: in vivo. As to conditions: mouse, in vivo, po; per os, male mice, Rota-rod 30 min after administration; dose causing 50% of animals to fall; read-out: TD50 (50% neurotoxic dose).
Text: as §3

Setting [6] is: oral (esophageal tube), groups of 10 to 20, 14 days, Table II.
The mark [7] stands for this setting: per os, repeated in Table IV, 20160 min.

A word on the LD50: it is the dose expected to kill half of the subjects tested. As to `COc1ccc(N2CCN(C(=O)c3cccnc3)CC2)cc1` [Ex. 17], the LD50 in the data set on male mice [1] (setting [6]) is given as above 1000 mg/kg. Further, the “ED50 in respect of convulsions induced by PTZ” value (shortened to “ED50 … by PTZ”) in data set [2] (po, 0.5 h) was 200 mg/kg. In data set [3] (po, 0.5 h), the “ED50 in respect of convulsions induced by MCE” value (from here on “ED50 … by MCE”) was above 200 mg/kg.

Consider `Cc1cc(Cl)ccc1N1CCN(C(=O)c2cccnc2)CC1` [Ex. 23, 4-(4-chloro-2-methylphenyl)-1-nicotinoylpiperazine], for which the LD50 in the data set with male mice [1] (setting [6]) is reported as above 1000 mg/kg. For the same compound, in the data set with male mice [1] (setting [7]), the LD50 is above 1000 mg/kg. In data set [2], the “Therapeutic index PTZ (LD50/ED50)” value was above 8.1. Also, the “ED50 … by PTZ” value in data set [2] (po, 0.5 h) was 124 mg/kg. Also, in the data set on male mice [4], the “Protection index MCE (TD50/ED50)” value came to 4.5, the “Protection index PTZ (TD50/ED50)” value is listed as 7.4 and the “TD50 (50% neurotoxic dose)” value is reported as 650 mg/kg. Further, the “Therapeutic index MCE (LD50/ED50)” value in data set [3] was below 5.0. The “ED50 … by MCE” value in data set [3] (po, 0.5 h) was above 200 mg/kg.

On to `Cc1ccc(Cl)cc1N1CCN(C(=O)c2cccnc2)CC1` [Ex. 25, 4-(5-chloro-2-methylphenyl)-1-nicotinoylpiperazine], for which the 50% lethal dose (LD50) in the data set on male mice [1] (setting [6]) is listed as above 1000 mg/kg. For the same compound, the median lethal dose (LD50) in the data set with male mice [1] (setting [7]) was above 1000 mg/kg. Besides, the “Therapeutic index PTZ (LD50/ED50)” value in data set [2] is above 12.7. In addition, the “ED50 … by PTZ” value in data set [2] (po, 0.5 h) turned out to be 79 mg/kg. In addition, in the data set on male mice [4], the “Protection index MCE (TD50/ED50)” value was 4.1, the “Protection index PTZ (TD50/ED50)” value is reported as 4.5 and the “TD50 (50% neurotoxic dose)” value is on record as 355 mg/kg. The “Therapeutic index MCE (LD50/ED50)” value in data set [3] is recorded as above 11.5. Besides, the “ED50 … by MCE” value in data set [3] (po, 0.5 h) was determined as 87 mg/kg.

`O=C(c1cccnc1)N1CCN(c2ccccc2)CC1` [Ex. 28]: the 50% lethal dose (LD50) in the data set with male mice [1] (setting [6]) is given as above 1000 mg/kg. Also, the “ED50 … by PTZ” value in data set [2] (po, 0.5 h) is recorded as above 200 mg/kg. Also, in data set [3] (po, 0.5 h), the “ED50 … by MCE” value is on record as above 200 mg/kg.

Broadly, the ED50 is the dose that gives a 50% effect, or the effect in half of the subjects. As a reminder, the TD50 is the 50% point of the dose-response relation for the toxic effect studied. In the data set with male mice [1] (setting [7]), `CCCC(CCC)C(=O)[O-].[Na+]` [VALP, sodium valproate, reference compound] gave an LD50 of 977 mg/kg. Also, the median lethal dose (LD50) at 336 h in data set [5] was determined as 977 mg/kg. In addition, the “Therapeutic index PTZ (LD50/ED50)” value in data set [2] turned out to be 4.0. Besides, in data set [2] (Mus musculus, po, 0.5 h, read-out: ED50 in respect of convulsions induced by PTZ), the 50% effective dose (ED50) is 244 mg/kg. In addition, in the data set on male mice [4], the “Protection index MCE (TD50/ED50)” value is 2.8 and the “Protection index PTZ (TD50/ED50)” value is 2.7. The TD50 at 0.5 h in “in vivo” amounted to 670 mg/kg. In data set [3], the “Therapeutic index MCE (LD50/ED50)” value stood at 4.0. In addition, the median effective dose (ED50) in data set [3] (Mus musculus, po, 0.5 h, read-out: ED50 in respect of convulsions induced by MCE) stood at 242 mg/kg.
